Assay results: ChEMBL document CHEMBL4251679 (J Nat Prod, 2018)
Activity calls are given as the source filed them. The rule behind the calls is not given here.

How the values were obtained:
Bos taurus = species on record: Bos taurus; assay: Inhibition of [3H]2-m-AzTax binding to bovine brain beta-tubulin at 20 uM treated for 30 mins followed by UV irradiation for 10 mins by fluorographic method relative to control
[1] = target: Tubulin beta-4 chain (Gallus gallus) (UniProt P09652); assay: Inhibition of [3H]2-m-AzTax binding to chicken erythrocyte beta-tubulin 4 at 20 uM treated for 30 mins followed by UV irradiation for 10 mins by fluorographic method relative to control
Homo sapiens [2] = species on record: Homo sapiens; assay: Inhibition of [3H]2-m-AzTax binding to P-gp in human SKVLB1 cell plasma membranes at 40 uM treated for 30 mins followed by UV irradiation for 10 mins by fluorographic method relative to control
Homo sapiens [3] = species on record: Homo sapiens; assay: Binding affinity to P-gp in human SKVLB1 cells assessed as increase in [3H]vinblastine accumulation at 40 uM after 1 hr by liquid scintillation counting method; type: cell-based
SK-OV-3 [4] = assay: Effect on [3H]vinblastine accumulation in human SKOV3 cells at 40 uM after 1 hr by liquid scintillation counting method; type: functional, cell-based
Homo sapiens [5] = species on record: Homo sapiens; assay: Inhibition of [3H]2-m-AzTax binding to P-gp in human SKVLB1 cell plasma membranes assessed as residual [3H]2-m-AzTax binding at 40 uM treated for 30 mins followed by UV irradiation measured after 10 mins by fluorographic method relative to control
HEY = assay: Cytotoxicity against human HEY cells after 72 to 120 hrs by sulforhodamine B assay; type: functional, cell-based
[6] = Cytotoxicity against human Hey/Tx100 cells after 72 to 120 hrs by sulforhodamine B assay; type: functional, cell-based
[7] = Cytotoxicity against human Hey/Ixab80 cells after 72 to 120 hrs by sulforhodamine B assay; type: functional, cell-based
[8] = Cytotoxicity against human Hey/EpoB8 cells after 72 to 120 hrs by sulforhodamine B assay; type: functional, cell-based
SK-OV-3 [9] = assay: Cytotoxicity against human SKOV3 cells after 72 to 120 hrs by sulforhodamine B assay; type: functional, cell-based
[10] = Cytotoxicity against vinblastine-resistant human SKVLB1 cells after 72 to 120 hrs by sulforhodamine B assay; type: functional, cell-based
SK-OV-3 [11] = assay: Cytotoxicity against human SKOV3 cells after 72 to 120 hrs in presence of verapamil by sulforhodamine B assay; type: functional, cell-based
[12] = Substrate activity at P-gp in human SKVLB1 cells assessed as inhibition of cell growth after 72 to 120 hrs by sulforhodamine B assay; type: cell-based
[13] = Substrate activity at P-gp in human SKVLB1 cells assessed as inhibition of cell growth after 72 to 120 hrs in presence of verapamil by sulforhodamine B assay; type: cell-based
[14] = Resistance index, ratio of IC50 for human HEY/Tx100 cells to IC50 for human HEY cells; type: functional
[15] = Resistance index, ratio of IC50 for human HEY/Ixab80 cells to IC50 for human HEY cells; type: functional
[16] = Resistance index, ratio of IC50 for human HEY/EpoB8 cells to IC50 for human HEY cells; type: functional
[17] = Resistance index, ratio of IC50 for vinblastine-resistant human SKVLB1 cells to IC50 for human SKOV3 cells; type: functional
P-gp [18] = assay: Resistance index, ratio of IC50 for substrate activity at P-gp in human SKVLB1 cells assessed as inhibition of cell growth to IC50 for human SKOV3 cells; type: toxicity, cell-based; conditions: SKVLB1 cells (P-gp) versus SKOV3 cells, read-out: Ratio IC50
P-gp [19] = assay: Resistance index, ratio of IC50 for substrate activity at P-gp in human SKVLB1 cells assessed as inhibition of cell growth in presence of verapamil to IC50 for human SKOV3 cells in presence of verapamil; type: toxicity, cell-based; conditions: SKVLB1 cells (P-gp) versus SKOV3 cells, with verapamil (concentration not stated), read-out: Ratio IC50
[20] = Ratio of fold resistance for substrate activity at P-gp in human SKVLB1 cells relative to sensitive human SKOV3 cells in absence of verapamil to fold resistance for substrate activity at P-gp in human SKVLB1 cells relative to sensitive human SKOV3 cells in presence of verapamil; type: toxicity, cell-based

Sequence of Tubulin beta-4 chain (Gallus gallus) (P09652 whole entry): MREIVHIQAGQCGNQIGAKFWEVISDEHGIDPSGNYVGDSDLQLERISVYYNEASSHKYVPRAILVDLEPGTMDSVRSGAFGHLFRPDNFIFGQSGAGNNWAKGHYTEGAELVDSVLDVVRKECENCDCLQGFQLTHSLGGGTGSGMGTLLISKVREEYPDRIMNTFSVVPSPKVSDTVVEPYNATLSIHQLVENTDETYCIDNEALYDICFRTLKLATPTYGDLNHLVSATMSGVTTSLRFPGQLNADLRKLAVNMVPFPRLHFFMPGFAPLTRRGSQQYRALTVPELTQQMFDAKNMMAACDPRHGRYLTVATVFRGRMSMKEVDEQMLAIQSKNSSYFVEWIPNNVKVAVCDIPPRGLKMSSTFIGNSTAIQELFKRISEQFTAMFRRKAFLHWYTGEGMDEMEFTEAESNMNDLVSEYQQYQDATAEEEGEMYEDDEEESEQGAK

inhibition (Bos taurus) [%]	inhibition [1] [%]	inhibition (Homo sapiens [2])	Activity (Homo sapiens [5]) [%]	SMILES	Activity (Homo sapiens [3])	Activity (SK-OV-3 [4])	IC50 (HEY) [nM]	IC50 [6] [nM]	IC50 [7] [nM]	IC50 [8] [nM]	IC50 (SK-OV-3 [9]) [nM]	IC50 [10] [nM]	IC50 (SK-OV-3 [11]) [nM]	IC50 [12] [nM]	IC50 [13] [nM]	Ratio IC50 [14]	Ratio IC50 [15]	Ratio IC50 [16]	Ratio IC50 [17]	also measured
33	98	55%	45	CC(=O)O[C@@]12CO[C@@H]1C[C@H](O)[C@@]1(C)C(=O)[C@H](O)C3=C(C)[C@@H](OC(=O)[C@H](O)[C@@H](NC(=O)OC(C)(C)C)c4ccccc4)C[C@@](O)([C@@H](OC(=O)c4ccccc4)[C@H]21)C3(C)C [DOCETAXEL ANHYDROUS]	Active		860	41400	16200	8400	0.75	3530				48	19	10	4704	
9	98	Active	18	CC(=O)O[C@H]1C(=O)[C@@]2(C)[C@H]([C@H](OC(=O)c3ccccc3)[C@]3(O)C[C@H](OC(=O)[C@H](O)[C@@H](NC(=O)c4ccccc4)c4ccccc4)C(C)=C1C3(C)C)[C@]1(OC(C)=O)CO[C@@H]1C[C@@H]2O [PACLITAXEL]	Active		2700	240000	152000	22200	2.39 to 3.85	12600	3.99	21200	3730	89	56	8	5416	selectivity ratio (P-gp [18]): 5520; selectivity ratio (P-gp [19]): 936; Ratio [20]: 5.9

The remaining lines, values behind:

SMILES	inhibition (Bos taurus) [%]	inhibition [1] [%]	inhibition (Homo sapiens [2])	Activity (Homo sapiens [5]) [%]	Activity (Homo sapiens [3])	Activity (SK-OV-3 [4])	IC50 (HEY) [nM]	IC50 [6] [nM]	IC50 [7] [nM]	IC50 [8] [nM]	IC50 (SK-OV-3 [9]) [nM]	IC50 [10] [nM]	IC50 (SK-OV-3 [11]) [nM]	IC50 [12] [nM]	IC50 [13] [nM]	Ratio IC50 [14]	Ratio IC50 [15]	Ratio IC50 [16]	Ratio IC50 [17]	also measured
CC(=O)O[C@@]12CO[C@@H]1C[C@H](O)[C@@]1(C)C(=O)[C@H](OC(=O)C3CC3)C3=C(C)[C@@H](OC(=O)[C@H](O)[C@H](C=C(C)C)NC(=O)OC(C)(C)C)C[C@@](O)([C@@H](OC(=O)c4ccccc4)[C@H]21)C3(C)C	38	30	89%	11	Active	inactive	580	2300	1600	8000	0.62 to 1.46	75.6	1.44	182	46.5					
CC(=O)O[C@@]1(C2/C(C)=C(/O)C(=O)C3=C(C)[C@@H](OC(=O)[C@H](O)[C@H](C=C(C)C)NC(=O)OC(C)(C)C)C[C@@](O)([C@H]2OC(=O)c2cccc(Cl)c2)C3(C)C)CO[C@H]1CCO (stereo partly drawn)	32	6	> 80%	14	Active	inactive	820	28800	13000	13900	1.15	1580				35	16	17	1376	
CC(=O)O[C@H]1C(=O)[C@@]2(C)[C@H]([C@H](OC(=O)c3cccc(N=[N+]=[N-])c3)[C@]3(O)C[C@H](OC(=O)[C@H](O)[C@@H](NC(=O)c4ccccc4)c4ccccc4)C(C)=C1C3(C)C)[C@]1(OC(C)=O)CO[C@@H]1C[C@@H]2O				16																
